In patent US20090042849A1, “Phosphorylation of 5-lipoxygenase at ser523 and uses thereof” (priority 2006, published 2009):
“Also recorded” adds a separate entry of the source.

Tests used:
[1] = system: 5LO (Ser523 phosphorylated 5LO); assay: immunoblotting of total 5LO and P-5LO in rat myocardium (whole cell homogenate); assay type: in vivo
Description: (§1) Rats received: 1) PIO (10 mg/kg/d); 2) ATV (10 mg/kg/d); 3) PIO (10 mg/kg/d)+H89 (20 mg/kg); 4) ATV (10 mg/kg/d)+H89 (20 mg/kg); 5) H89 (20 mg/kg) or 6) water alone (control). PIO and ATV were suspended in water and administered by gastric gavage once daily for 3 days; H-89 was dissolved in DMSO (final concentration 5% v/v) and injected intraperitoneally on the third day. Rats in groups 5 and 6 received water by gastric gavage once daily for 3 days. Rats in groups 1, 2 and 6 received intraperitoneal inkection of DMSO 5%. Sixteen hours after the injection, rats were euthanized and the hearts explanted for further analyses. In another experiment, rats received 3-day pretreatment with: 1) water (sham); 2) PIO (10 mg/kg/d); 3) ATV (10 mg/kg/d); 4) PIO (10 mg/kg/d)+ATV (10 mg/kg/d); or 5) LPS (10 mg/kg).
PIO and ATV were administered by oral gavage once daily as above; LPS was administered intravenously. In addition, rats in groups 1-4 received intravenous saline on the […], whereas rats in group 1 and 5 received water by gastric gavage once daily for 3 days and the LPS injection on the third day. Sixteen hours after the injection, rats were euthanized and the hearts explanted for further analyses.
The hearts were rapidly explanted, rinsed in cold PBS (pH 7.4), containing 0.16 mg/ml heparin to remove red blood cells and clots, frozen in liquid nitrogen and stored at −70° C. Myocardial samples from the anterior left ventricular wall were homogenized in RIPA lysis buffer (Santa Cruz Biotechnology, Santa Cruz, Calif.) and centrifuged at 14,000 rpm for 15 min at 4° C. The supernatant was collected and the total protein concentration was determined using the Lowry protein assay. […] The protein samples with loading buffer were run in 4-20% Tri-HCl Ready Gel at a 100V for 2 h until the desired molecular weight bands were separated. After electrophoresis, the gel was equilibrated in transfer buffer (25 mM Tris, 193 mM glycine, 0.1% SDS and 10% methanol) and the proteins were transferred to nitrocellulose membrane. The protein signals were quantified by an image-scanning-densitometer and the strength of each protein signal was normalized to the corresponding b-actin stain signal. Data are expressed as a ratio between the protein and the corresponding b-actin signal density.

[2] = system: 5LO; assay: immunoblotting of 5LO in cytosolic, membranous and nuclear fractions of myocardial cells; assay type: in vivo; conditions: rat myocardium
Description: Rats received: 1) […] (20 mg/kg) or 6) water alone (control). PIO and ATV were suspended in water and administered by gastric gavage once daily for 3 days; H-89 was dissolved in DMSO (final concentration 5% v/v) and injected intraperitoneally on the third day. Rats in groups 5 and 6 received water by gastric gavage once daily for 3 days. Rats in groups 1, 2 and 6 received intraperitoneal inkection of DMSO 5%. Sixteen hours after the injection, rats were euthanized and the hearts explanted for further analyses. In another experiment, rats received 3-day pretreatment with: 1) […]); or 5) LPS (10 mg/kg). Myocardial samples (0.25 g) were homogenized, mixed with Buffer A Mix [Hepes (pH 7.9) 10 mM, KCl 10 mM, EDTA 10 mM, DTT 100 mM, protease inhibitor cocktail, and IGEPAL 10%, (Sigma, St Lois, Mo.)], homogenized again and incubated for 15 min on ice, and centrifuged at 850×g for 10 min at 4° C. The supernatant was discharged, Buffer A Mix was added again and the samples incubated for an additional 15 min on ice, and centrifuged at 15,000×g for 3 min at 40 C. The supernatant contains the cytosolic fraction was collected. The pellet was resuspended in 150 μl of Buffer B Mix [Hepes (pH 7.9) 20 mM, NaCl 0.4M, EDTA 1 mM, glycerol 10%, protease inhibitor cocktail, and IGEPAL 10%], the tubes were shaked on ice at 200 rpm for 2 h, centrifuged at 15,000×g for 5 min at 4° C., and supernatants were collected as the nuclear fraction. […] The hearts were rapidly explanted, rinsed in cold PBS (pH 7.4), containing 0.16 mg/ml heparin to remove red blood cells and clots, frozen in liquid nitrogen and stored at -70° C. Myocardial samples from the anterior left ventricular wall were homogenized in RIPA lysis buffer (Santa Cruz Biotechnology, Santa Cruz, Calif.) and centrifuged at 14,000 rpm for 15 min at 4° C. The supernatant was collected and the total protein concentration was determined using the Lowry protein assay. […] The protein samples with loading buffer were run in 4-20% Tri-HCl Ready Gel at a 100V for 2 h until the desired molecular weight bands were separated. After electrophoresis, the gel was equilibrated in transfer buffer (25 mM Tris, 193 mM glycine, 0.1% SDS and 10% methanol) and the proteins were transferred to nitrocellulose membrane. The protein signals were quantified by an image-scanning-densitometer and the strength of each protein signal was normalized to the corresponding b-actin stain signal. Data are expressed as a ratio between the protein and the corresponding b-actin signal density.

[3] = system: 5LO interaction with COX2 / cPLA2; assay: co-immunoprecipitation of 5LO with COX2 and cPLA2 in rat hearts; assay type: in vivo
Description: as §1
For co-immunoprecipitation, myocardial cytosolic, membranous and nuclear fractions (500 μg) were incubated with anti-5LO antibodies for 4 h followed by overnight incubation at 4° C. with Protein-A-Agarose. The agarose beads were collected by centrifugation and SDS/PAGE Western immunoblotting was performed with the supernatant fraction. The anti-5LO precipitates were subjected to immunoblotting with anti-COX2 or anti-cPLA2 antibodies.

[4] = system: 5LO mRNA; assay: rtPCR of 5LO mRNA in adult rat cardiomyocytes; assay type: cell-based
Description: Cardiac myocytes were isolated from adult Sprague-Dawley rats (250-300 g, male). Animals were heparinized (1,000-2,000 units i.p.) 5 min before being anesthetized with ketamine (100 mg/kg) and xylazine (10 mg/kg), and the hearts were removed and placed in ice-cold heart media solution (in mmol/l: 112 NaCl, 5.4 KCl, 1 MgCl2, 9 NaH2PO4, and 11.1 D-glucose; supplemented with 10 HEPES, 30 taurine, 2 DL-carnitine, and 2 creatine, pH. 7.4). The hearts were perfused retrogradely in a Langendorff apparatus with Ca^2+-free heart media for 5 min at 5 ml/min at 37° C., followed by perfusion with Ca^2+-free heart media containing collagenase II, 210 U/mg (Worthington, Lakewood, N.J.) for 20 min. After perfusion, both ventricles were removed from the heart and minced in collagenase II-containing heart media for 10-15 min. The cell solution was then washed several times to remove collagenase II and reexposed to 1.2 mM Ca2^+ over 25 min to produce Ca2^+-tolerant cardiac myocytes. Myocytes were then plated in 4% FBS on laminin (2 μg/cm^2)-coated plates for 1 h and incubated at 37° C. in 5% CO2 for 12-24 h before experiments (21). Cells were incubated with 1) vehicle (0.07% ethanol); 2) PIO (10 μM)+ATV (10 μM); 3) H-89 (0.1 μM); or 4) PIO+ATV+H-89 for 12 hours. The supernatants were collected directly for LTB4 analyses by ELISA and the cells were harvested for immunoblotting. In addition, cells were plated in 8-chamber slides, received the same treatment as above and were used for immunohistochemical staining.
Equal amounts of total cellular RNA were reverse-transcribed with oligo(dT) primer by use of AMV Reverse Transcriptase (Applied Biosystems). Transcribed cDNAs (40 ng) were used for Real Time PCR with specific primers: rat ALOX5. […] The Ct (threshold cycle) is defined as the number of cycles required for the fluorescence signal to exceed the detection threshold. Expression of the ALOX5 relative to the GAPDH was calculated as the different between the threshold values of these two genes. […]

[5] = system: neonatal rat cardiomyocytes; conditions: neonatal rat cardiomyocytes cultures; cited from earlier work
[6] = system: rat infarct model; assay: rat infarct model, infarct size; assay type: in vivo; conditions: ATV 2 mg/kg/d, cilostazol 20 mg/kg/d, alone or combined
Description: The effects of cilostazol (Pletal) and atorvastatin on myocardial protection was measured in a rat infarct model. Pletal is a phosphodiesterase III inhibitor, thus increasing intracellular cAMP levels. cAMP activates PKA. ATV at 2 mg/kg/d had no effect. Cilostazol 20 mg/kg/d reduced infarct size. However, when combined with ATV 2 mg/kg/d the effect was much greater. There are 8 rats in the control and ATV 2 mg/kg/d groups and 6 rats in the cilostazol and the combination groups. Infarct size in the ATV 2 mg/kg/d (30.48±1.46%) is not different from the controls (33.97±2.76%).

[7] = whole cell homogenate, PIO or ATV 10 mg/kg/d 3 days, H-89 20 mg/kg i.p.

For `CCc1ccc(CCOc2ccc(CC3SC(=O)NC3=O)cc2)nc1` (centres unmarked) [PIO, 5-[[4-[2-(5-ethylpyridin-2 yl)ethoxy]phenyl]methyl]thiazolidine-2,4-dione], the “5LO phosphorylation, PIO and ATV compared with LPS” value ([1]; PIO, ATV 10 mg/kg/d, LPS 10 mg/kg i.v.) was “significantly greater increase”, the “myocardial levels of Ser523 phosphorylated 5LO (P-5LO)” value [1, 7] was “augment; also recorded: increased” and the “myocardial total 5LO levels” value [1, 7] was “without detectable change; also recorded: did not affect”. For the same compound, the “5LO levels in the cytosolic fraction” value [2] was “small, yet significant increase”, the “5LO levels in the membranous fraction” value [2] was “no detectable effect” and the “fraction in which the co-immunoprecipitation with 5LO occurred” value ([3]; cytosolic and membranous fractions) was “in the cytosolic, but not the membranous fraction; also recorded: only in the cytosolic fraction”. The “co-immunoprecipitation of COX2 or cPLA2 with 5LO” value ([3]; whole cell lysate) was 5LO precipitated with COX2 and COX2, but not cPLA2, precipitated with 5LO and the “5LO mRNA levels in the cardiomyocytes” value [4] was “did not affect”.

In the case of `CC(C)c1ccc2c(c1)c(SC(C)(C)C)c(CC(C)(C)C(=O)O)n2Cc1ccc(Cl)cc1` [MK886], the “calcium ionophore (A23187) induction of reactive oxygen species” value [5] is listed as “prevented”.

With `O=C1CCc2cc(OCCCCc3nnnn3C3CCCCC3)ccc2N1` [cilostazol] the Infarct size [6] was 15.47±1.61% and the “effect on infarct size (in words)” value [6] was “reduced”.
